Data published in US8426148B2, “Label-free methods using a resonant waveguide grating biosensor to determine GPCR signaling pathways” (Corning Incorporated, priority 2007, dated 2013).
Like-named read-outs stand apart in the source and are kept apart here. Values belong to the compound of their own block, whether it stands above or below them.

Experiments:
H1 histamine receptor = assay: RWG biosensor DMR assay: forskolin pretreatment, then histamine-induced Gq response; type: cell-based, Human; details: quiescent A431 cells; forskolin pretreatment 1 h, then 100 nM histamine; read-out: IC50 of forskolin pretreatment, partial inhibition of histamine-induced response
Protocol: (§1) Cell culture—Human epidermoid carcinoma A431 cells (American Type Cell Culture) were grown in Dulbecco's modified Eagle's medium (DMEM) supplemented with 10% fetal bovine serum (FBS), 4.5 g/liter glucose, 2 mM glutamine, and antibiotics. About 1.8×10^4 cells at passage 3 to 8 suspended in 50 μL of the DMEM medium containing 10% FBS were placed in each well of a 384-well microplate, and were cultured at 37° C. under air/5% CO2 for about 1 day, followed by about 20 hr starvation through continuously culturing in the serum-free DMEM.
(§2) Optical biosensor system and cell assays—CORNING® EPIC® wavelength interrogation system was used. […] Once stable temperature is reached (typically within 1 hr), a sensor microplate is transferred by the robotics into the plate holder directly above the detection system, while a source plate is moved to an appropriate compartment so that it is readily addressable by the on-board liquid handling unit. […]
(§3) For kinetic assays, the cells were washed with HBSS (Hanks Balanced Salt Solution with 20 mM HEPES) buffer. After 1 hour incubation within the detection system, the sensor plate was scanned and a baseline response was recorded. Then, compound solutions were transferred into the sensor plate using the on-board liquid handling system, and the cell responses were then recorded for another period of time. […]

adenylate cyclase [1] = details: read-out: IC50 of histamine pretreatment against the forskolin response, quiescent A431 cells, then 1 μM forskolin, slight inhibition
Protocol: as §1, §2, §3

adenylate cyclase [2] = assay: RWG biosensor DMR assay: NECA pretreatment, then forskolin-induced response; type: cell-based, Human; details: quiescent A431 cells; NECA pretreatment 1 h, then 1 μM forskolin; read-out: IC50 of NECA pretreatment against the forskolin-induced response
Protocol: (§4) The plate lid was handled automatically by the robotics.
Similarly, pretreatment of A431 cells with various concentrations of NECA for 1 h desensitizes adenylate cyclase and attenuates the forskolin-induced responses (FIG. 3B). […] Although not limited by theory a possible mechanism of cross-talk between these two pathways is that upon activation of adenylate cyclase by forskolin, cAMP is produced and activates PKA. PKA in turn may phosphorylate the Gs receptors, and cause complete inhibition of the Gs-mediated response. Accordingly, FIGS. 3A and 3B, respectively, illustrate: 3A) forskolin pretreatment on the NECA-induced Gs response; and 3B) of the effects NECA pretreatment on forskolin-induced responses in quiescent A431 cells.

[3] = system: histamine receptor subtype 1; assay: RWG biosensor DMR assay: U73122 pretreatment, then histamine-induced DMR signal; type: cell-based, Human; details: quiescent A431 cells
From the text: as §4
Histamine is a natural agonist for endogenously expressed Gq-coupled receptor histamine receptor subtype 1 in A431 cells.

- IC50 (H1 histamine receptor): ~184 nM
Structure (SMILES): C=C[C@@]1(C)CC(=O)[C@]2(O)[C@@]3(C)[C@@H](O)CCC(C)(C)[C@@H]3[C@H](O)[C@H](OC(C)=O)[C@@]2(C)O1 [forskolin, Forskolin]

Structure (SMILES): NCCc1c[nH]cn1 [histamine, Histamine]
- IC50 (adenylate cyclase [1]): 301 nM

Structure (SMILES): CCNC(=O)[C@H]1O[C@@H](n2cnc3c(N)ncnc32)[C@H](O)[C@@H]1O [NECA, N-ethyladenosine-5′-uronic acid]
- IC50 (adenylate cyclase [2]): 1.3 nM

Structure (SMILES): COc1ccc2c(c1)CC[C@@H]1[C@@H]2CC[C@]2(C)[C@@H](NCCCCCCN3C(=O)C=CC3=O)CC[C@@H]12 [U73122, 1-[6-[[17β-3-methoxyestra-1,3,5(10)-trien-17-yl]amino]hexyl]-1H-pyrrole-2,5-dione]
- effect of U73122 pretreatment on histamine-induced DMR response ([3]; U73122 0-228 μM, then 1,000 nM histamine): dose-dependent inhibition of the histamine-induced DMR response
- effect of U73122 at high doses on histamine response (P-DMR amplitude) ([3]; high doses of U73122, 1,000 nM histamine): completely inhibit the histamine response
